Paper PMC6650409, “Modeling the binding of diverse ligands within the Ah receptor ligand binding domain” (Scientific Reports, 2019)

Tests used:
H331A mutant AhR = target: T1, H331A mutant AhR (Mus musculus, UniProt P30561, H331A); assay: [3H]TCDD competitive ligand binding, H331A mutant AhR
T1 construct: made in house; host or cells: in vitro, Promega TNT Quick rabbit reticulocyte lysate
T1 sequence (P30561 10-848 H331A): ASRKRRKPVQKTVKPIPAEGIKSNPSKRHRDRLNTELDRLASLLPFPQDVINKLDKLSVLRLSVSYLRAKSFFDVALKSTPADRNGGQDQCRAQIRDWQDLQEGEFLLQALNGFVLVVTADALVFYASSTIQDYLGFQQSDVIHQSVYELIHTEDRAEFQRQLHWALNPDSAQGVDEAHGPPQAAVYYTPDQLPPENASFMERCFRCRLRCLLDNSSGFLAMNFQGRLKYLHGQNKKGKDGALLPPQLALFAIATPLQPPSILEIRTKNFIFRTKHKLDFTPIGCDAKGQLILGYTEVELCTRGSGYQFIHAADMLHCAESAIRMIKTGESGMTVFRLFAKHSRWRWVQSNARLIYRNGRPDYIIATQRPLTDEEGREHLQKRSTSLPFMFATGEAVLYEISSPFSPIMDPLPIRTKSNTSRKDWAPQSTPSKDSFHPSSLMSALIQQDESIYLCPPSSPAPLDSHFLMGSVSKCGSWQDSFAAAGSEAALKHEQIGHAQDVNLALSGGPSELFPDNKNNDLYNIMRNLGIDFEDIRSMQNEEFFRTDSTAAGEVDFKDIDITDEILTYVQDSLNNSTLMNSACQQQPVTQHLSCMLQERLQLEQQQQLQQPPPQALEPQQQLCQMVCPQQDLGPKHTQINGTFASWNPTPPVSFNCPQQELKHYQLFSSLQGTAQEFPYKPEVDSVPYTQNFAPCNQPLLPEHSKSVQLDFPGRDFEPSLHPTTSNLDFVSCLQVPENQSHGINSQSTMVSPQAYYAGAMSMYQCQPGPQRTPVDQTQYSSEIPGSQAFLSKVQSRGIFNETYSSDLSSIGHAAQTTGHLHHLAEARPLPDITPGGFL
Description: The mouse AhR (mAhR) and ARNT (mARNT) expression plasmids, mβAhR/pcDNA3 and mβArnt/pcDNA3, have been previously described. Point mutations of mβAhR/pcDNA3 were carried out using the QuikChange Lightning Mutagenesis Kit (Agilent Technologies) and all constructs were verified by sequencing.
[^3H]TCDD specific binding to wild-type or mutant mAhRs synthesized in vitro using the Promega TNT Quick coupled transcription/translation rabbit reticulocyte lysate kit (Madison, WI) was carried out as previously described. [^3H]TCDD specific binding was determined by subtracting the amount of [^3H]TCDD bound to unprogrammed lysate (nonspecific binding) from the total amount of [^3H]TCDD binding to lysate containing in vitro expressed AhR. The amount of [^3H]TCDD specific binding remaining in the presence of the indicated competitor chemical was expressed as a percent of the total [^3H]TCDD specific binding. The relative binding affinity (IC50) of each chemical was determined from concentration-dependent competitive inhibition curves obtained using [^3H]TCDD and increasing concentrations of each test chemical and the mean IC50 value was determined using three-parameter non-linear regression.

[1] = test system: zebrafish AhR1a (zfAhR1a); settings: cited from earlier work

## Cc1ccc2cc3c(ccc4ccccc43)c3c2c1CC3 [3MC, 3-methylcholanthrene]
H331A mutant AhR; H331A mutation, in words
  change of relative binding affinity versus wild-type AhR: dramatically increased
H331A mutant AhR; Table S6, AhR mutant H331A
  IC50: 0.141 nM

## Clc1cc2c(cc1Cl)Oc1cc(Cl)c(Cl)cc1O2 [TCDD, 2,3,7,8-tetrachlorodibenzo-p-dioxin]
[1]
  ligand binding to zfAhR1a: unable to bind
